From patent US9988405B2, “O-phenyl chalcone compounds and uses thereof” (Neopanora Bio-technology (Zhuhai) Ltd., priority 2014, dated 2018)
pIC50: −log10 of the molar value. Read-outs that look alike come from different tables or passages of the source.

Key:
Assay type in all cases: cell-based
[1] = test system: Paclitaxel-resistant human ovarian carcinoma cell A2780/TAX; assay: SRB anti-proliferative assay, drug-resistant A2780/TAX; settings: read-out: Anti-proliferative IC50, A2780/TAX
Experimental: (§1) The present example evaluated the anti-tumor activity of the molecules provided by the present invention. The present example mainly used a method with SRB (sulforhodamine B) dying, in which proteins in the cell were stained with SRB dye to determine protein content in the cell so as to characterize cell growth density. Firstly, the test compound was formulated into a stock solution (10 mM), which was stored at 4° C. in a refrigerator. Prior to beginning the assay, the stock solution was diluted with DMSO into a series of different concentrations. The required concentrations were obtained by diluting with complete growth medium. Well growing cells were seeded in a 96-well plate (5000 cells/well, 100 uL) and cultured in an incubator at 37° C., 5% CO2, and 90% RH. 24 h later, the prepared compound solution (100 μL) was slowly added to cell solution in the 96-well plate, and the well with DMSO (final concentration 0.5%) instead of the drug was used as a drug free control. The plate was incubated for 48 h. In addition, a day 0 plate that was drug free was directly detected after cell seeded in the plate for 24 h. The 96-well plate was taken out and added with trichloroacetic acid (50 μL, final concentration 10%). The plate was incubated at 4° C. for 1 h to fix the cells.
(§2) The plate was washed with ultrapure water and air-dried. The plate was then stained with SRB dye (0.4% in 1% acetic acid, 100 μL) for 30 min at room temperature. The plate was then washed with 1% acetic acid and then air-dried. A Tris base solution (100 μL, 10 mM, pH10.4) was added, after which the plate was gently shaken for 1 h on an orbital shaker to ensure that the dyes were completed dissolved. The optical density (OD) was recorded on a TECAN Infinite M200 Pro multimode reader at 515 nm. The cell growth (% of control)=(OD value of wells added with drug−mean OD value of Day 0 plate)/(OD value of DMSO drug-free control well−mean OD value of Day 0 plate)*100.
(§3) We also evaluated the anti-proliferation activities of selected compounds against drug-resistant cancer cell lines.

[2] = test system: human ovary cancer cells A2780; assay: SRB anti-proliferative assay, A2780; settings: read-out: Anti-proliferative IC50, A2780
Experimental: as §1, §2

[3] = test system: human liver cancer cell HepG2; assay: SRB anti-proliferative assay, HepG2; settings: read-out: Anti-proliferative IC50, HepG2
Experimental: as §1, §2

[4] = test system: human colon cancer cells HCT8; assay: SRB anti-proliferative assay, HCT-8; settings: read-out: Anti-proliferative IC50, HCT-8
Experimental: as §1, §2

[5] = test system: human breast cancer cells MCF7; assay: SRB anti-proliferative assay, MCF-7; settings: read-out: Anti-proliferative IC50, MCF-7
Experimental: as §1, §2

[6] = test system: doxorubicin resistant breast cancer cell MCF-7/DOX; assay: SRB anti-proliferative assay, drug-resistant MCF-7/DOX; settings: Homo sapiens, MCF7-DOX, read-out: Anti-proliferative IC50, MCF-7/DOX
Experimental: as §1, §2, §3

[7] = test system: human nasopharyngeal carcinoma cells CNE2; assay: SRB anti-proliferative assay, CNE2; settings: read-out: Anti-proliferative IC50, CNE2
Experimental: as §1, §2

[8] = test system: cis-platinum resistant human lung cancer cell A549/CDDP; assay: SRB anti-proliferative assay, drug-resistant A549/CDDP; settings: read-out: Anti-proliferative IC50, A549/CDDP
Experimental: as §1, §2, §3

[9] = test system: incristine resistant human ileocecum carcinoma cell HCT-8/VCT; assay: SRB anti-proliferative assay, drug-resistant HCT-8/VCT; settings: HCT8/VCT, read-out: Anti-proliferative IC50, HCT-8/VCT
Experimental: as §1, §2, §3

[10] = test system: human colon cancer cells SW480; assay: SRB anti-proliferative assay, SW480; settings: read-out: Anti-proliferative IC50, SW480
Experimental: as §1, §2

[11] = test system: human lung cancer cells A549; assay: SRB anti-proliferative assay, A549; settings: read-out: Anti-proliferative IC50, A549
Experimental: as §1, §2

[12] = paclitaxel-resistant A2780/TAX, SRB
[13] = doxorubicin resistant MCF-7/DOX, SRB
[14] = cis-platinum resistant A549/CDDP, SRB
[15] = vincristine-resistant HCT-8/VCT, SRB

Structure (SMILES) | pIC50 [1, 12] | pIC50 ([2]; A2780, SRB, 48 h) | pIC50 ([3]; HepG2, SRB, 48 h) | pIC50 ([4]; HCT-8, SRB, 48 h) | pIC50 ([5]; MCF7, MCF-7, SRB, 48 h) | pIC50 [6, 13] | pIC50 ([7]; CNE-2, CNE2, SRB, 48 h) | pIC50 [8, 14] | pIC50 [9, 15] | pIC50 ([10]; SW480, SRB, 48 h) | pIC50 ([11]; A549, SRB, 48 h) | also measured
COc1ccc(/C=C/C(=O)c2ccccc2-c2ccc(OC)c(OC)c2OC)cc1B(O)O [compound 8] | 6.63 | 7.01 | 7.11 | 6.93 | 6.94 | 7.12 | 7.07 | 6.61 | 6.81 | 7.13 | 7.19 | –
CN(C)c1ccc(/C=C/C(=O)c2ccccc2-c2cccc(F)c2)cc1Br [compound 15, (E)-1-(3′-Fluoro[1,1′-biphenyl]-2-yl)-3-(3-bromo-4-(Dimethylamino)phenyl)prop-2-en-1-one] | 7.02 | 7.05 | 7.36 | 7.00 | 6.91 | 7.12 | 7.34 | 6.93 | 6.95 | 7.06 | 7.06 | –
O=C(/C=C/c1ccc(N(c2ccccc2)c2ccccc2)cc1)c1ccccc1-c1cccc(F)c1 [compound 17, (E)-1-(3′-Fluoro[1,1′-biphenyl]-2-yl)-3-(4-(diphenylamino)phenyl)prop-2-en-1-one] | 6.80 | 6.88 | 7.03 | 6.86 | 6.91 | 7.18 | 7.37 | 6.78 | 6.75 | 7.29 | 7.13 | –
COc1cccc2c1C(=O)c1c(O)c3c(c(O)c1C2=O)C[C@@](O)(C(=O)CO)C[C@@H]3O[C@H]1C[C@H](N)[C@H](O)[C@H](C)O1 [DOX, doxorubicin, reference compound] | 5.71 | 7.08 | 6.77 | 6.78 | 6.86 | 4.84 | 7.12 | 6.54 | 5.47 | 7.01 | 6.54 | –
COc1ccc(/C=C/C(=O)c2ccccc2-c2cccc(F)c2)cc1OP(=O)(O)O [compound 10, (E)-(5-(3-(3′-Fluoro[1,1′-biphenyl]-2-yl)-3-oxoprop-1-en-1-yl)-2-Methoxyphenol) phosphate ester] | – | – | – | – | – | – | – | – | – | – | – | pIC50 ([1]; A2780/TAX): 7.04; pIC50 ([2]; A2780, 48 h): 7.23; pIC50 ([3]; HepG2, 48 h): 8.00; pIC50 ([4]; HCT-8, 48 h): 7.21; pIC50 ([5]; MCF7, 48 h): 7.29; pIC50 [6]: 8.00; pIC50 ([7]; CNE-2, 48 h): 7.52; pIC50 ([8]; A549/CDDP): 6.99; pIC50 [9]: 6.94; pIC50 ([10]; SW480, 48 h): 8.05; pIC50 ([11]; A549, 48 h): 8.00
CC[C@]1(O)C[C@H]2CN(CCc3c([nH]c4ccccc34)[C@@](C(=O)OC)(c3cc4c(cc3OC)N(C=O)[C@H]3[C@@](O)(C(=O)OC)[C@H](OC(C)=O)[C@]5(CC)C=CCN6CC[C@]43[C@@H]65)C2)C1 [VCT, vincristine, reference compound] | 6.03 | – | – | – | – | 5.37 | – | 7.25 | 5.72 | – | – | –
O=C(O)c1ccc(/C=C/C(=O)c2ccccc2-c2cccc(F)c2)cc1 [compound 18] | 6.30 | 7.33 | 7.64 | 7.17 | 6.94 | 7.42 | 7.48 | 6.37 | 6.38 | 7.33 | 7.19 | –
Nc1cccc(/C=C/C(=O)c2ccccc2-c2cccc(F)c2)c1 [compound 19, (E)-1-(3′-Fluoro[1,1′-biphenyl]-2-yl)-3-(3-aminophenyl)prop-2-en-1-one] | 6.84 | 7.42 | 7.47 | 7.38 | 7.04 | 7.37 | 7.46 | 6.63 | 6.80 | 7.24 | 7.19 | –
N#Cc1ccc(/C=C/C(=O)c2ccccc2-c2cccc(F)c2)cc1 [compound 14, (E)-1-(3′-Fluoro[1,1′-biphenyl]-2-yl)-3-(4-cyanophenyl)prop-2-en-1-one] | 6.43 | 6.91 | 7.19 | 6.99 | 6.89 | 6.88 | 7.21 | 6.33 | 6.41 | 7.37 | 7.06 | –
O=C(/C=C/c1ccc(O)c(S(=O)(=O)O)c1)c1ccccc1-c1cccc(F)c1 [compound 21, (E)-5-(3-(3′-Fluoro[1,1′-biphenyl]-2-yl)-3-oxoprop-1-en-1-yl)-2-Hydroxybenzenesulfonic acid] | 6.91 | 7.80 | 7.74 | 7.70 | 7.31 | 7.96 | 7.72 | 7.13 | 7.16 | 7.80 | 7.74 | –
O=C(/C=C/c1ccc(O)c(S(=O)(=O)O)c1)c1ccccc1-c1ccc(F)cc1 [compound 22, (E)-5-(3-(4′-Fluoro[1,1′-biphenyl]-2-yl)-3-oxoprop-1-en-1-yl)-2-Hydroxybenzenesulfonic acid] | 6.87 | 7.41 | 7.70 | 7.46 | 7.15 | 7.68 | 7.64 | 7.20 | 7.09 | 7.72 | 7.42 | –
CN(C)c1ccc(/C=C/C(=O)c2ccccc2-c2cccc(F)c2)cc1O [compound 13, (E)-1-(3′-Fluoro[1,1′-biphenyl]-2-yl)-3-(3-hydroxy-4-(Dimethylamino)phenyl)prop-2-en-1-one] | 7.37 | 8.00 | 8.05 | 7.85 | 7.16 | 8.30 | 7.82 | 7.16 | 7.43 | 8.22 | 7.96 | –
COc1ccc(/C=C/C(=O)c2ccccc2-c2cccc(F)c2)cc1S(=O)(=O)O [compound 23, (E)-5-(3-(3′-Fluoro[1,1′-biphenyl]-2-yl)-3-oxoprop-1-en-1-yl)-2-methoxy benzenesulfonic acid] | 7.28 | 8.00 | 7.92 | 7.92 | 7.38 | 8.52 | 7.80 | 7.38 | 7.21 | 8.00 | 7.85 | –
O=C(/C=C/c1ccc(N2CCCC2)cc1)c1ccccc1-c1cccc(F)c1 [compound 16, (E)-1-(3′-Fluoro[1,1′-biphenyl]-2-yl)-3-(4-pyrrolidine-1-yl)prop-2-en-1-one] | 6.83 | 6.97 | 7.15 | 6.91 | 6.97 | 7.12 | 7.44 | 6.87 | 6.78 | 7.28 | 7.07 | –
CC(=O)O[C@H]1C(=O)[C@@]2(C)[C@H]([C@H](OC(=O)c3ccccc3)[C@]3(O)C[C@H](OC(=O)[C@H](O)[C@@H](NC(=O)c4ccccc4)c4ccccc4)C(C)=C1C3(C)C)[C@]1(OC(C)=O)CO[C@@H]1C[C@@H]2O [TAX, paclitaxel, reference compound] | – | – | – | – | – | – | – | 8.05 | 5.59 | – | – | –
